Results from patent US20110105554A1, “MEANS FOR TREATING MYOSIN-RELATED DISEASES” (KINARIS BIOMEDICALS GMBH, priority 2007, published 2011).
“And” between values parts separate entries of the source, which are not always exact repeats. Identical values can stand only once.

What was measured:
[1] = target: rabbit skeletal myosin-2 heavy meromyosin (HMM); assay: Actin-activated ATPase activity, rabbit skeletal myosin-2 HMM; assay type: biochemical; details: 0 to 150 μM PBP, hyperbolic fit; read-out: Ki, half-maximal inhibition of actin-activated ATPase activity
Method: (§1) Based on the structure of the myosin-2 motor domain with bound PBP, we performed molecular modeling studies to elucidate the specificity of PBP-binding to myosins from different classes. […] To test the predictions from the modeling studies, we determined actin-activated ATPase activities in the presence of 0 to 150 μM PBP with rabbit skeletal myosin-2 heavy meromyosin (HMM), myosin-5a isolated from chicken brain, and recombinant Dictyostelium myosin class-1, 2 and 5 motor-domain constructs (FIG. 9a). […] The concentrations of PBP required for half-maximal inhibition of the different myosin motors was calculated from fitting the data to hyperbolae. […] To determine the extend to which PBP impairs the coupling between the actin- and nucleotide-binding sites of myosin, we measured the ATP turn-over rates of Dictyostelium myosin-2 and myosin-5b motor domain constructs over the range from 0 to 50 μM F-actin in the absence and presence of 25 μM PBP.
(§2) Protein preparation. Rabbit fast skeletal muscle heavy meromyosin (HMM) was prepared as described by Kron and Spudich^9. […]
(§3) Steady-state kinetics. Basal and actin-activated Mg^2+-ATPase activities were measured with the NADH-coupled assay^19 in a buffer containing 25 mM HEPES, 25 mM KCl, and 4 mM MgCl2, 0.5 mM DTT at pH 7.0 in the presence of 1 mM ATP at 25° C. […]

[2] = target: T1, M761 (myosin-2 motor domain from D. discoideum) (Dictyostelium discoideum, UniProt P08799, C312Y/S249N); assay: Quench-flow ATP hydrolysis (Pi-burst) with M761; assay type: biochemical; details: 50 μM PBP
T1 construct: amino acids 3 to 761 of myosin-2 from D. discoideum; His-tag (N); made in house; host or cells: D. discoideum AX3-ORF+ cells
T1 sequence (P08799 3-761 S249N/C312Y): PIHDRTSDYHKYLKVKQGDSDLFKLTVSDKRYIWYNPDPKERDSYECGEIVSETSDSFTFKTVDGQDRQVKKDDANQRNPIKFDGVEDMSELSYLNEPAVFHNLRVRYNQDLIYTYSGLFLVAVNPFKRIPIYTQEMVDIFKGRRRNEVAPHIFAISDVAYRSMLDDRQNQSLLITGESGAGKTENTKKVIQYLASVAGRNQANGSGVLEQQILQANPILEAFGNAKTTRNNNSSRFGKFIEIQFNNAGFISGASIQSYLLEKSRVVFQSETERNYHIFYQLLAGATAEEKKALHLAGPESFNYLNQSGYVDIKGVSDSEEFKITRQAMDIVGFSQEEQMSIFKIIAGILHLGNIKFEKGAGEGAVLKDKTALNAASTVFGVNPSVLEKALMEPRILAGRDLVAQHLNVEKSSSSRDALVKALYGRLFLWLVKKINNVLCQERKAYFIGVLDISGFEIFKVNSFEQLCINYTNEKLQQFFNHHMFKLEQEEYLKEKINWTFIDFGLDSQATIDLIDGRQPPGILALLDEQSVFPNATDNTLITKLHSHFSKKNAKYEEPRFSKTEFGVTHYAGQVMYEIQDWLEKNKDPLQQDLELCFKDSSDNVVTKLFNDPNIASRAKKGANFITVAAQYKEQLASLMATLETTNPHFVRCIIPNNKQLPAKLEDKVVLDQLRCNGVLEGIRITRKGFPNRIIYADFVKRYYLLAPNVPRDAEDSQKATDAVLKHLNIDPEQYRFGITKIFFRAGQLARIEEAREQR
Method: Effect of Pentabromopseudilin on ATP binding kinetics to DdMyosin-5b and acto-DdMyosin-5b. (FIG. 10a) Fluorescence transients obtained upon mixing 1 μM DdMyosin-5b with 10 μM mantATP in the absence and presence of 5 μM, 25 μM, 50 μM and 100 μM PBP. Mant-fluorescence was excited at 365 nm and detected after passing through a KV 389 nm cut-off filter. The fluorescent signal of mantATP binding to DdMyosin-5b in the absence of PBP follows a single exponential function (upper curve). The presence of increasing concentrations of PBP lead to reduced amplitudes of the fluorescent signals that are best fit by double exponentials. (FIG. 10b) Plot of the relative amplitudes of mantATP binding to Dd Myosin-5b at different PBP concentrations. […] (FIG. 10c) Fluorescence transients of the ATP induced dissociation of pyrene-acto-DdMyosin-5b in the absence (black curve) and presence (grey curve) of 50 μM PBP. (FIG. 10d) Quench-flow experiments of the ATP hydrolysis reaction upon mixing 5 μM M761 with 25 μM ATP in the absence (solid squares) and presence (open circles) of 50 μM PBP. The Pi-burst (kburst=7.8±0.2 sin the absence and 2.5±0.1 s^−1 in the presence of PBP) was followed by a linear steady-state phase. […]
Quench-flow Experiments. […] The relative amounts of […] and ATP were quantified using a phosphorimager (Fujix BAS1000, Fuji), the software MacBAS V 2.4, TINA V 2.09f, and Origin 7.0.

Dictyostelium myosin-1E = target: T2, Dictyostelium myosin-1E (Dictyostelium discoideum, UniProt Q03479); assay: Actin-activated ATPase activity (NADH-coupled assay), Dictyostelium myosin-1E; assay type: biochemical
T2 construct: comprising amino acids 1-698, 1-765, and 1-839 respectively; made in house
T2 sequence (Q03479 1-698): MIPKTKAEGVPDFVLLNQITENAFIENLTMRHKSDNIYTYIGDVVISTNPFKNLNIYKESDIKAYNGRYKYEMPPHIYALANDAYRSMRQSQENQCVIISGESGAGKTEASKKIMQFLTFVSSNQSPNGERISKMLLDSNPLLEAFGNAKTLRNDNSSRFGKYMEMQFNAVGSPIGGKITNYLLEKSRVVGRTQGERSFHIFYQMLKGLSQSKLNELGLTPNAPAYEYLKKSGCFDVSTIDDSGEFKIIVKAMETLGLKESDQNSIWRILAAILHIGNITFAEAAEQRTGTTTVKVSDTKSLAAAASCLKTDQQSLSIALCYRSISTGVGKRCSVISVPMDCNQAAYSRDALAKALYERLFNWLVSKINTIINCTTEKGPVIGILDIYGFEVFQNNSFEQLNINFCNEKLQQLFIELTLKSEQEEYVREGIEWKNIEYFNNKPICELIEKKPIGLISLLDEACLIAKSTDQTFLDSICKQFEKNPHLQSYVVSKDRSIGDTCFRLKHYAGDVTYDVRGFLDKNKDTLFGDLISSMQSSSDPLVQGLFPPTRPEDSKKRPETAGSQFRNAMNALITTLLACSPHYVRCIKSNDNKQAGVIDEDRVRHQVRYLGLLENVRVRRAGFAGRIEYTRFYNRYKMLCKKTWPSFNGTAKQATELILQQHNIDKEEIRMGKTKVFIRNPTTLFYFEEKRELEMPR
Method: as §1, §2, §3

Dictyostelium myosin-5b = target: T3, Dictyostelium myosin-5b (Dictyostelium discoideum, UniProt P54697); assay: Actin-activated ATPase activity (NADH-coupled assay), Dictyostelium myosin-5b; assay type: biochemical
T3 construct: comprising amino acids 1-698, 1-765, and 1-839 respectively; made in house
T3 sequence (P54697 1-839): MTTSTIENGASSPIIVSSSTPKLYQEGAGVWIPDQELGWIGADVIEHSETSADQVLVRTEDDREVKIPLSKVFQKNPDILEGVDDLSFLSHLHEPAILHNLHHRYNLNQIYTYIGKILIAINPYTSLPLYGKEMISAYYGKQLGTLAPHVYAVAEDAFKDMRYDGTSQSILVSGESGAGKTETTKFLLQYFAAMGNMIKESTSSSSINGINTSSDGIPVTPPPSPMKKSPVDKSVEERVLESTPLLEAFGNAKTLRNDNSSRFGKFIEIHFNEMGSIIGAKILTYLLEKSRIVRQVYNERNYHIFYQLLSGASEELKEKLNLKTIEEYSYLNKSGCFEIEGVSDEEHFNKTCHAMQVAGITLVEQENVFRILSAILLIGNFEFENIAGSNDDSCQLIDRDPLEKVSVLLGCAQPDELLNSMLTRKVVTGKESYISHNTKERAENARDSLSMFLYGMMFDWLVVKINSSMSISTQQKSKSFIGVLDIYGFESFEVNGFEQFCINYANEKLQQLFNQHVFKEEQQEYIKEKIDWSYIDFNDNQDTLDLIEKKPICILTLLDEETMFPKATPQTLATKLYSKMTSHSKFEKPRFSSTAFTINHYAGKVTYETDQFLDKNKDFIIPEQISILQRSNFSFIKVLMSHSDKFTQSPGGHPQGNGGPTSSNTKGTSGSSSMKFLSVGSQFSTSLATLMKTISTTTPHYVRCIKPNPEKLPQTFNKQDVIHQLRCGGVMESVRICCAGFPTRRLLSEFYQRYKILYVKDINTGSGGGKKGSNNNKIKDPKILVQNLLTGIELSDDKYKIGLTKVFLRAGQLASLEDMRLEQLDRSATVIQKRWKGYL
Method: as §1
Values for the rate of maximum ATP turnover (kcat), the concentration of F-actin at which half-maximal activation is achieved (Kapp), and the apparent second order rate constant for actin binding (kcat/Kapp) were estimated from a fit of the data to a hyperbolic function. kcat/Kapp is a direct measure of the coupling efficiency between actin and nucleotide binding and can be determined from the initial slope at F-actin concentrations much smaller than Kapp. […] ATP turn-over rates of Dictyostelium myosin-2 (◯) and Dictyostelium myosin-5b (▪) at increasing F-actin concentrations in the absence (filled symbols) and presence (open symbols) of 25 μM pentabromopseudilin (FIG. 9b):
Protein preparation. Rabbit fast skeletal muscle heavy meromyosin (HMM) was prepared as described by Kron and Spudich^9. Motor domain constructs of myosin-1E, myosin-2, and myosin-5b from Dictyostelium discoideum comprising amino acids 1-698, 1-765, and 1-839 respectively, were prepared as described previouslyl^10-12. Myosin-5a heavy meromyosin from chicken brain was provided by Dr. T. Scholz (Hannover Medical School, Germany) and F-actin was prepared as described by Lehrer and Kerwar^13.
Steady-state kinetics. Basal and actin-activated Mg^2+-ATPase activities were measured with the NADH-coupled assay^19 in a buffer containing 25 mM HEPES, 25 mM KCl, and 4 mM MgCl2, 0.5 mM DTT at pH 7.0 in the presence of 1 mM ATP at 25° C. PBP was added to the reaction mixture in the absence of nucleotide and incubated for 20 minutes before the reaction was started by the addition of ATP. NADH oxidation was followed using the change in absorption at 340 nm in a Beckman DU-800 spectrophotometer.

Source text for mammalian myosin-5a: In this context, preferred selectivity means a more than 20-fold smaller IC50 value compared to fast skeletal muscle myosin-2 and other references myosins.

Oc1c(Br)cc(Br)cc1-c1[nH]c(Br)c(Br)c1Br [KIN-43]
Ki [1]: 23 µM
Pi-burst rate kburst ([2]; 5 μM M761, 25 μM ATP): 2.5 ± 0.1 s⁻¹
amplitude of the burst ([2]; 0.95 in the absence): 0.5
Ki (Dictyostelium myosin-1E): 49.5 µM
ATPase activity at 30 μM F-actin in the presence of inhibitor (Dictyostelium myosin-1E; >100 μM PBP, 3.5 s^−1 without): 0.10 s⁻¹
fold weaker coupling (kcat/Kapp) (Dictyostelium myosin-5b; 25 μM PBP): 26 fold
kcat/Kapp (apparent second order rate constant for actin binding) (Dictyostelium myosin-5b; 25 μM PBP, 0 to 50 μM F-actin, 0.32 without): 12000 M⁻¹ s⁻¹
ATPase activity at 30 μM F-actin in the presence of inhibitor (Dictyostelium myosin-5b; >100 μM PBP, 5.5 s^−1 without): 0.05 s⁻¹
Ki (Dictyostelium myosin-5b; Ki, half-maximal inhibition of actin-activated ATPase activity, 0 to 150 μM PBP, hyperbolic fit): 19.3 µM and 19.1 µM
fold decrease in kcat (Dictyostelium myosin-5b; class-5 myosins): approximately 8 fold
fold increase in Kapp (Dictyostelium myosin-5b; class-5 myosins): more than 25 fold
preferred selectivity: fold smaller IC50 compared to fast skeletal muscle myosin-2 and other reference myosins (mammalian myosin-5a): more than 20 fold
